Data published in patent US20230092294A1, “COMPOSITIONS AND METHODS FOR POTENTIATING IMMUNE RESPONSE” (Kumquat Biosciences Inc., priority 2019, published 2023).

How the values were obtained:
[1] = tested on: HER-2 positive tumor line (OVCAR-3); assay: CAR-T killing assay (Example 7); format: cell-based, human
Excerpt: HER-2 specific CAR-T cells (CAR-Ts) were generated by transducing primary human CD3+ T cells (Discovery Life Sciences) with a lentivirus expressing a chimeric antigen receptor specific to human HER2, as well as GFP (Creative Bio). Prior to transduction, T cells were stimulated overnight with anti-CD3 and anti-CD28 antibodies coated onto magnetic beads (Invitrogen) at a 1:1 bead-to-cell ratio. Four days after transduction, the beads were removed and the following day CAR-Ts were sorted based on GFP expression and expanded in hIL7 ([…]) (Peprotech) and hIL15 (5 ng/mL) (Peprotech) for an additional 8 days. […]
CAR-Ts were pretreated with 0.1% DMSO (vehicle control) or a PTPN22 inhibitor (Compound A) for 1-2.5 hours prior to co-culture with cell lines at indicated concentrations. […] Tumor killing was assessed by comparing DMSO-treated CAR-Ts to PTPN22 inhibitor-treated CAR-Ts using either flow cytometry or Incucyte imaged-based assessment of tumor cell viability, at various effector:target ratios. Percent killing was assessed by calculating the amount of viable cells at a given time point as compared to untreated tumor cells (spontaneous release, marked “No CAR-T” in FIG. 2), tumor cells treated with PTPN22 inhibitor, and tumor cells cultured with DMSO treated CAR-T cells as a control.

[2] = tested on: HER2-positive OVCAR-3 ovarian cancer cells; assay: Additional CAR-T killing assay (Example 11); format: cell-based, human; settings: HER2 scFv-CD28-CD3z-CAR-T cells from Donor 1 or Donor 2, compound-treated 1h at 1, 3 or 10 μM; co-culture 2 h; vs DMSO; FIG. 5
Excerpt: HER2 scFv-CD28-CD3z-CAR-T (Creative Bio) lentiviral particles were generated via transfection of 293T cells using Lipofectamine 2000 transfection reagent (ThermoFisher) according to manufacturer's instructions Human CD3+ T cells were negatively selected from peripheral blood mononuclear cells (PBMCs) (Discovery Life Sciences) from two individual healthy donors (Donor 1, Donor 2) using EasySep Human T cell Isolation Kit (StemCell Technologies #17951) and subsequently activated at a concentration of 0.5×10^6 cells/mL with Human T Expander Dynabeads (Gibco) (Thermo Fisher Scientific #11141D) at a ratio of 1 bead per cell in CTS Optimizer T cell expansion serum free medium (SFM) (Thermo Fisher Scientific #A1048501) supplemented with recombinant human IL-7 (10 ng/mL) and recombinant human IL-15 (5 ng/mL) (Peprotech #200-02). […]
For the killing assay, HER2-positive OVCAR-3 (ATCC #HTB-161) ovarian cancer cells stably transduced with IncuCyte Nuclight Red Lentivirus (Essen Biosciences #4706) in OVCAR media (RPMI 1640+20% FBS, 1% Pen-Strep +0.01 mg/mL human insulin) were plated (1.5×10^4 cells/well) in 96-well flat-bottom plates and incubated at 37° C. to allow for overnight adherence to serve as target cells. […] Tumor cell death was quantified on a ZE5 flow cytometer (Bio-Rad).

With `O=C(O)c1cc2c(C#Cc3cccc(C(F)(F)F)c3)c(-c3ccccc3)oc2cc1O` [Compound A] the “tumor cell killing activity of CAR-T cells” value ([1]; HER-2 specific CAR-Ts pretreated 1-2.5 hours then washed, compared to control cells treated with DMSO, FIG. 2) was “higher tumor cell killing activity”, the “increase in cell killing” value ([1]; HER-2 specific CAR-Ts transiently pretreated 1-2.5 hours then washed, compared to DMSO control, FIG. 3) was at least 1.5 fold and the “tumor cell killing activity of CAR-T cells” value [2] was “higher tumor cell killing activity”.
